Where two headings read alike, the source gives them in different places.
What was measured:
in vitro = conditions: human; for viability at 2 days, 3.13 µM / viability at 2 days, 6.25 µM / viability at 2 days, 12.5 µM / viability at 2 days, 25 µM / viability at 2 days, 50 µM / viability at 2 days, 100 µM: HEK293 cells (Flp-In-293), HEK293 viability
[1] = target: B. taurus (heart) complex I (Bos taurus, UniProt P03887+P17694+P42026); assay: biochemical; assay type: biochemical; conditions: for IC50: B. taurus heart mitochondria, read-out: B. taurus Complex I IC50; for activity at 0.0001 µM / activity at 0.0005 µM / activity at 0.001 µM / activity at 0.0025 µM / activity at 0.005 µM / activity at 0.013 µM / activity at 0.025 µM / activity at 0.063 µM / activity at 0.125 µM / activity at 0.313 µM / activity at 0.625 µM / activity at 1.5 µM / activity at 3 µM / activity at 15 µM / activity at 37.5 µM / activity at 75 µM: read-out: B. taurus mitochondrial complex I activity; for Log IC50 B. taurus complex I: log10 of IC50 in µM, B. taurus mitochondria
Sequence of B. taurus (heart) complex I (P03887 whole entry): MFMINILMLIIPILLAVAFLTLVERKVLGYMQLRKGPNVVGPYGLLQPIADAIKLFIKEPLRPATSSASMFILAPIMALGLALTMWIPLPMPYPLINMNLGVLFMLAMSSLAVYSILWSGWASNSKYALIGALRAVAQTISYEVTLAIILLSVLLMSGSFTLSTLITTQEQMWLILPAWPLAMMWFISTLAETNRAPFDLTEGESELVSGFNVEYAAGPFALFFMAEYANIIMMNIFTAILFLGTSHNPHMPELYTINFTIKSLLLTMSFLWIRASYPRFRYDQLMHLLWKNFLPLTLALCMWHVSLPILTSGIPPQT
Sequence of B. taurus (heart) complex I (P17694 34-463): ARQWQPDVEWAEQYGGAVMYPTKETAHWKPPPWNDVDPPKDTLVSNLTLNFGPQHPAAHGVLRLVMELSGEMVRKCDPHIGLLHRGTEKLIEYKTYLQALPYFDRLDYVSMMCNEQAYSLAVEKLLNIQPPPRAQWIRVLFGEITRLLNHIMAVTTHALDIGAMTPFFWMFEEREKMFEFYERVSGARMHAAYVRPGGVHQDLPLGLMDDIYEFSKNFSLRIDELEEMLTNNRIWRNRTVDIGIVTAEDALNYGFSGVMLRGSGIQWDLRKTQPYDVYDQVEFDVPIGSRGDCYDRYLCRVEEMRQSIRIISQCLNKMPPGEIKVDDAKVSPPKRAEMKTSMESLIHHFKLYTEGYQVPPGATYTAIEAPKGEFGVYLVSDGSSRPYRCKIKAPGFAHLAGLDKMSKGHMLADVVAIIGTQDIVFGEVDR
Sequence of B. taurus (heart) complex I (P42026 38-216): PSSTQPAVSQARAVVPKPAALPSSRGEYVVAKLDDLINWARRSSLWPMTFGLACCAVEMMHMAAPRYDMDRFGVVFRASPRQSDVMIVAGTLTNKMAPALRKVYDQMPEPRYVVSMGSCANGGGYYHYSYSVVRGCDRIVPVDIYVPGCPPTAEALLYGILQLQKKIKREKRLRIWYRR
How it was run: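 Complex I activity followed as DCIP reduction (600 nm, 30 s reads, 15 min) with 80 μM NADH and 60 μM decylubiquinone in 25 mM KPi pH 7.5 containing 2 μM antimycin A and 2 mM KCN. Freeze-thawed mouse or bovine heart mitochondria at 0.2 mg/mL; initial-rate percent of solvent control, single-point 100 μM or dose-response.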

[2] = system: ben-1 mutant (ECA882) C. elegans; assay: microbe, parasite or virus in culture; conditions: Caenorhabditis elegans; for viability at 1 µM / viability at 2 µM / viability at 3.9 µM / viability at 15.6 µM / viability at 31.3 µM / viability at 62.5 µM / viability at 125 µM / viability at 250 µM / viability at 500 µM / viability at 1000 µM: read-out: C. elegans ben-1(e1880) development/viability
How it was run: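 L1 larvae (~2 worms/μL in M9) in liquid NGM with 2-fold concentrated E. coli HB101, compound at 1% DMSO, 6 days at 20 °C shaking 165 rpm. Well images scored as summed worm-associated pixels, normalized to DMSO controls; relative viability averaged over at least three biological replicates.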

[3] = read-out: C. elegans (ben-1) Development & Viability Assay LC50
[4] = read-out: C. elegans ben-1 log10 LC50 (converted)
[5] = estimated from fitted dose-response curves
[6] = HEK293 Cell Viability Assay LC50, HEK293 cells, estimated from fitted dose-response curves, mean of at least two biological replicates

Row | Compound | CC50 at 2 days (in vitro) [µM] | viability at 2 days, 3.13 µM (in vitro) [%] | viability at 2 days, 6.25 µM (in vitro) [%] | viability at 2 days, 12.5 µM (in vitro) [%] | viability at 2 days, 25 µM (in vitro) [%] | viability at 2 days, 50 µM (in vitro) [%] | viability at 2 days, 100 µM (in vitro) [%] | activity at 0.0001 µM [1] [%] | activity at 0.0005 µM [1] [%] | activity at 0.001 µM [1] [%] | activity at 0.0025 µM [1] [%] | activity at 0.005 µM [1] [%] | activity at 0.013 µM [1] [%] | activity at 0.025 µM [1] [%] | activity at 0.063 µM [1] [%] | activity at 0.125 µM [1] [%] | Log IC50 B. taurus complex I [1] [µM] | LC50 [2, 3] [µM] | LC50 [2, 4] [µM] | IC50 [1, 5] [µM] | other results
1 | Cc1nc2ccccc2n1CCOc1ccccc1Cl [Compound 5561642] | 93.1 | 100 | 100 | 100 | 100 | 81.4 | 46.4 | 88.4 | 88.9 | 90.3 | 85.7 | 90.4 | 86.9 | 83.6 | 88.9 | 88.4 | 0.91 | 636 | 635 |  | IC50 [1]: 8.05 µM; activity at 0.313 µM [1]: 83.2%; activity at 0.625 µM [1]: 86.2%; activity at 1.5 µM [1]: 75.9%; activity at 3 µM [1]: 63.2%; activity at 15 µM [1]: 29.8%; activity at 37.5 µM [1]: 11.9%; activity at 75 µM [1]: 6%; viability at 1 µM [2]: 97%; viability at 2 µM [2]: 98.6%; viability at 3.9 µM [2]: 100%; viability at 15.6 µM [2]: 99.1%; viability at 31.3 µM [2]: 100%; viability at 62.5 µM [2]: 91.8%; viability at 125 µM [2]: 98.9%; viability at 250 µM [2]: 96.4%; viability at 500 µM [2]: 35.3%; viability at 1000 µM [2]: 46.7%
2 | FC(F)(F)c1cccc(OCCCCn2cnc3ccccc32)c1 [Compound 7925004] | 29.2 | 99.3 | 99.5 | 100 | 61.3 | 16.2 | 6.8 | 92.5 | 92.1 | 90.6 | 88.9 | 89.8 | 84.7 | 87.1 | 85.1 | 81.8 | 1.11 | 47.3 | 47.3 | 13 | activity at 0.313 µM [1]: 83.3%; activity at 0.625 µM [1]: 88.4%; activity at 1.5 µM [1]: 81.4%; activity at 3 µM [1]: 76.3%; activity at 15 µM [1]: 35.9%; activity at 37.5 µM [1]: 9.66%; activity at 75 µM [1]: 1.95%; viability at 1 µM [2]: 93.7%; viability at 2 µM [2]: 95.4%; viability at 3.9 µM [2]: 96.9%; viability at 15.6 µM [2]: 76.5%; viability at 31.3 µM [2]: 75.3%; viability at 62.5 µM [2]: 28%; viability at 125 µM [2]: 3.4%; viability at 250 µM [2]: 2.3%; viability at 500 µM [2]: 2.6%; viability at 1000 µM [2]: 1.1%
3 | Brc1ccc(Cn2cnc3ccccc32)cc1 [Compound 5542661] | > 100 |  |  |  |  |  |  |  |  |  |  |  |  |  |  |  | 0.53 | 41.4 | 41.4 | 3.35 | 
4 | Cc1nc2ccccc2n1Cc1ccc(C(C)C)cc1 [Compound 7353551] |  |  |  |  |  |  |  |  |  |  |  |  |  |  |  |  | 0.20 | 91.5 | 91.6 | 1.57 | CC50 at 2 days (in vitro; [6]): 46.2 µM
5 | C=CCn1c(-c2ccc(N(C)C)cc2)nc2ccccc21 [Compound 6873298] |  |  |  |  |  |  |  |  |  |  |  |  |  |  |  |  | 1.32 | 40.6 | 40.6 | 21 | CC50 at 2 days (in vitro; [6]): 65.3 µM
6 | Cc1cccc(OCCn2c(C)nc3ccccc32)c1 [Compound 6285199] | 97.7 | 100 | 100 | 100 | 100 | 98.3 | 46.5 | 98.3 | 97.3 | 100 | 95.3 | 95.1 | 97.1 | 95.3 | 88.5 | 87.7 | 0.70 | 205 | 205 | 4.97 | activity at 0.313 µM [1]: 83.8%; activity at 0.625 µM [1]: 79%; activity at 1.5 µM [1]: 67.9%; activity at 3 µM [1]: 54%; activity at 15 µM [1]: 18.4%; activity at 37.5 µM [1]: 5.61%; activity at 75 µM [1]: 1.08%; viability at 1 µM [2]: 99.9%; viability at 2 µM [2]: 91.6%; viability at 3.9 µM [2]: 97.6%; viability at 15.6 µM [2]: 95.5%; viability at 31.3 µM [2]: 93.8%; viability at 62.5 µM [2]: 97.6%; viability at 125 µM [2]: 100%; viability at 250 µM [2]: 64.8%
7 | Clc1ccc(SCCCCn2cnc3ccccc32)cc1 [Compound 7925515] |  | 83.6 | 92.4 | 94.2 | 96.8 | 55.5 | 12.7 | 102 | 97.1 | 96.1 | 95.6 | 88.9 | 95.1 | 90.6 | 95.8 | 98.1 | 0.90 | 40.8 | 40.8 | 8.02 | CC50 at 2 days (in vitro; [6]): 57.3 µM; activity at 0.313 µM [1]: 94.7%; activity at 0.625 µM [1]: 97.6%; activity at 1.5 µM [1]: 86.3%; activity at 3 µM [1]: 74.8%; activity at 15 µM [1]: 26.8%; activity at 37.5 µM [1]: 5.44%; activity at 75 µM [1]: 2.46%; viability at 1 µM [2]: 92.2%; viability at 2 µM [2]: 97%; viability at 3.9 µM [2]: 94.8%; viability at 15.6 µM [2]: 84.7%; viability at 31.3 µM [2]: 65.4%; viability at 62.5 µM [2]: 25%; viability at 125 µM [2]: 5%; viability at 250 µM [2]: 3.7%; viability at 500 µM [2]: 3.1%; viability at 1000 µM [2]: 1%
8 | Cc1ccc(C(C)C)c(OCC(O)Cn2cnc3ccccc32)c1 (centres unmarked) [Compound 6093301] | 21.8 | 90.1 | 92.9 | 85.6 | 32.4 | 7.3 | 7.2 | 94.9 | 95.3 | 95.9 | 100 | 99.5 | 100 | 96.1 | 94 | 90 | 0.32 | 366 | 366 | 2.07 | activity at 0.313 µM [1]: 81.5%; activity at 0.625 µM [1]: 75.8%; activity at 1.5 µM [1]: 60.4%; activity at 3 µM [1]: 45.2%; activity at 15 µM [1]: 18%; activity at 37.5 µM [1]: 13.4%; activity at 75 µM [1]: 11.2%; viability at 1 µM [2]: 94.1%; viability at 2 µM [2]: 98.7%; viability at 3.9 µM [2]: 95.9%; viability at 15.6 µM [2]: 96.4%; viability at 31.3 µM [2]: 97.2%; viability at 62.5 µM [2]: 83.6%; viability at 125 µM [2]: 88.1%; viability at 250 µM [2]: 88.4%; viability at 500 µM [2]: 12.5%; viability at 1000 µM [2]: 4.7%
9 | Cc1ccc(Cn2c(C(C)C)nc3ccccc32)cc1 [Compound 6586153] |  |  |  |  |  |  |  |  |  |  |  |  |  |  |  |  | 1.76 | 419 | 419 |  | CC50 at 2 days (in vitro; HEK293 Cell Viability Assay LC50, HEK293 cells, estimated from fitted dose-response curves): > 100 µM; IC50 [1]: 57.6 µM
